Values after ≈ are worked out from the molar mass of the structure shown.
Assays:
A. baumannii AB5075 [1] = assay: Murine dorsal wound infection model (neutropenic BALB/c mice), wound area measurement and gross pathology; format: in vivo, Acinetobacter baumannii
A. baumannii AB5075 [2] = assay: Murine dorsal wound infection model, percent weight change; format: in vivo, Acinetobacter baumannii; settings: for median loss of infection-day body weight: Day 1 post-infection; for maximal median loss of infection-day body weight: maximal loss over days 1 through 6 post-infection; for duration of significantly less weight loss than placebo: post-infection, Kruskal-Wallis test followed by Dunn's post-test
Description: All procedures were performed in accordance with protocol IB02-10 that was approved by the Walter Reed Army Institute of Research (WRAIR)/Navy Medical Research Center (NMRC) Institutional Animal Care and Use Committee (Silver Spring, Md.). Mice received 150 mg/kg and 100 mg/kg cyclophosphamide intraperitoneal (IP) injections, before wounding and infection, on days −4 and −1, respectively (22, 24). On Day 0, the day of wounding and inoculum, mice were anesthetized with ketamine 130 mg/kg (KETASET®, Fort Dodge Animal Health, Fort Dodge, Iowa), xylazine 10 mg/kg (ANASED®, Lloyd Inc. Shenandoah, Iowa), and buprenorphine 0.05 mg/kg (Hospira Inc., Lake Forest, Ill.) injections. Hair was clipped from the cervical to mid-lumbar dorsum, and the skin scrubbed with iodine solution followed by an ethanol rinse. A 6.0 mm disposable skin biopsy punch (VisiPunch, Huot Instruments, LLC, Menomonee Falls, Wis.) was used to create a full-thickness skin defect overlying thoracic spinal column and the adjacent musculature. Twenty-five μL containing 5.0×10^4 AB5075 cells in a PBS suspension were pipetted into the wound, and allowed to absorb for three minutes. A circular cutout (30 mm diameter) of transparent dressing (TEGADERM™Roll, 3M Health Care, St. Paul, Minn.) was placed over the wound and secured with tissue adhesive (VETBOND™, 3M Animal Care, St. Paul, Minn.). […] However, the size of the wound was increased to 6 mm in order to facilitate subsequent punch biopsies to measure bacterial burden in the wound tissue.
(§1) Beginning four hours post-inoculation, mice were treated with either rifampin at 25 mg/kg IP injection once daily, doxycycline 25 mg/kg IP injection twice daily, or an equivalent vehicle control over the course of a six day treatment period (25, 26). On Day 7 the transparent dressing was removed, treatment discontinued, and the wound monitored for closure through Day 25.
All statistical analyses were carried out using Graphpad Prism software. […] CFU burdens were compared via the Kruskal-Wallis test followed by Dunn's multiple comparison tests. All results were considered significant if p<0.05.

A. baumannii AB5075 [3] = assay: Murine dorsal wound infection model, CFU burden in wound tissue (4 mm biopsy punch); format: in vivo, Acinetobacter baumannii
A. baumannii AB5075 [4] = assay: Murine dorsal wound infection model, PNA-FISH examination of AB5075 localization in wound tissue; format: in vivo, Acinetobacter baumannii; settings: Day 1
Description: All procedures were performed in accordance with protocol IB02-10 that was approved by the Walter Reed Army Institute of Research (WRAIR)/Navy Medical Research Center (NMRC) Institutional Animal Care and Use Committee (Silver Spring, Md.). Mice received 150 mg/kg and 100 mg/kg cyclophosphamide intraperitoneal (IP) injections, before wounding and infection, on days −4 and −1, respectively (22, 24). On Day 0, the day of wounding and inoculum, mice were anesthetized with ketamine 130 mg/kg (KETASET®, Fort Dodge Animal Health, Fort Dodge, Iowa), xylazine 10 mg/kg (ANASED®, Lloyd Inc. Shenandoah, Iowa), and buprenorphine 0.05 mg/kg (Hospira Inc., Lake Forest, Ill.) injections. […]
as §1
One mouse from each treatment group (placebo, rifampin, and doxycycline) and from representative time points (Days 1, 3, and 7) were sacrificed in order to characterize the dissemination of AB5075 within wound tissue via peptide nucleic acid fluorescence in situ hybridization (PNA-FISH) (33). […]

A. baumannii AB5075 [5] = assay: Murine dorsal wound infection model, SEM analysis of biofilm on occlusive dressings and wound tissue; format: in vivo, Acinetobacter baumannii
A. baumannii AB5075 [6] = assay: Murine dorsal wound infection model, time course histopathology of wounds (H&E); format: in vivo, Acinetobacter baumannii
A. baumannii AB5075 [7] = settings: cited from earlier work
[8] = Day 3 post-infection, BALB/c mice, IP treatment from 4 h post-inoculation (rifampin 25 mg/kg once daily, doxycycline 25 mg/kg twice daily)
[9] = Day 8 post-infection, one day after occlusive dressing removed, six day IP treatment
[10] = Day 15 post-infection, six day IP treatment
[11] = Day 21 post-infection, six day IP treatment

Row | SMILES | median wound size (A. baumannii AB5075 [1]; [8]) [mm^2] | median wound size (A. baumannii AB5075 [1]; [9]) [mm^2] | median wound size (A. baumannii AB5075 [1]; [10]) [mm^2] | median wound size (A. baumannii AB5075 [1]; [11]) [mm^2] | median loss of infection-day body weight (A. baumannii AB5075 [2]) [%] | maximal median loss of infection-day body weight (A. baumannii AB5075 [2]) [%] | duration of significantly less weight loss than placebo (A. baumannii AB5075 [2]) [days] | median CFU burden (A. baumannii AB5075 [3]; 3 days post-infection) | median CFU burden (A. baumannii AB5075 [3]; Day 7 post-infection) | median CFU burden (A. baumannii AB5075 [3]; after 24 hours of infection) | reduction of median CFU burden versus placebo (A. baumannii AB5075 [3]; after 24 hours of infection) [log] | A. baumannii cells in wound bed by Acinetobacter-specific PNA probe (A. baumannii AB5075 [4]) | biofilm on occlusive dressing by SEM (A. baumannii AB5075 [5]; Day 3 (rifampin: Days 3 or 7) post-infection) | bacteria on occlusive dressing by SEM (A. baumannii AB5075 [5]; one day post-infection) | histopathology of wound (H&E) (A. baumannii AB5075 [6]; Day 15) | histopathology of wound (H&E) (A. baumannii AB5075 [6]; Day 23) | MIC (A. baumannii AB5075 [7]) [µg/mL]
1 | C[C@H]1c2cccc(O)c2C(=O)C2=C(O)[C@]3(O)C(=O)C(C(N)=O)=C(O)[C@@H](N(C)C)[C@@H]3[C@@H](O)[C@@H]21 [doxycycline] | 31.0 | 29.0 | 2.0 | 0.0 | 5.3 | 11.8 | 4 | 5.0×10^4 CFU per 4 mm tissue biopsy punch | 6.2×10^5 CFU per 4 mm tissue biopsy punch | 5.9×10^5 CFU per 4 mm tissue biopsy punch |  |  |  |  |  |  | 
2 | CO[C@H]1/C=C/O[C@@]2(C)Oc3c(C)c(O)c4c(O)c(c(/C=N/N5CCN(C)CC5)c(O)c4c3C2=O)NC(=O)/C(C)=C\C=C\[C@H](C)[C@H](O)[C@@H](C)[C@@H](O)[C@@H](C)[C@H](OC(C)=O)[C@@H]1C [rifampin] | 35.0 | 34.5 | 5.5 | 0.0 | 6.7 | 6.8 | 5 | 4.7×10^4 CFU per 4 mm tissue biopsy punch | 6.1×10^5 CFU per 4 mm tissue biopsy punch | 5.7×10^5 CFU per 4 mm tissue biopsy punch | 1 | clearance of A. baumannii cells below the level of detection at all levels of the wound bed | no biofilm formation was observed on dressings | no substantial amount of bacteria observed on the dressing | re-epithelization over the wound was observed | signs of contractile healing and re-epithelized wound beds | 4.0 (≈ 4.86 µM)
